Source: patent US9636286B2, “Antimicrobial cleanser” (Coloplast A/S, priority 2013, dated 2017)

What was measured:
[1] = test system: reconstructed human epidermis (RhE) model; set-up: unit not given beside the values; settings: known irritants and non-irritants given as examples of the scale; cited from earlier work
[2] = test system: reconstructed human epidermis (RhE) model; experiment: In vitro irritancy, EpiDerm MTT ET50 Protocol (EPI-200), Example 1; assay type: cell-based
Description: In vitro irritancy was tested using a commercially available kit “EpiDerm MTT ET50 Protocol (EPI-200)”, available from MatTek Corporation (Ashland, Mass.). The test kit is used as a validated replacement for in vivo irritation testing otherwise known as “Draize testing”, in the EU (OECD TG439). Our method of data analysis and outcome prediction is altered slightly to determine relative differences in irritation potential between experimental neat materials tested within the same kit.
The test consists of a topical exposure of the neat experimental material to a reconstructed human epidermis (RhE) model followed by a cell viability assay. The cell viability test method is based on the enzymatic conversion of mitochondrial dehydrogenase with MTT [(3-4,5-dimethyl thiazole-2-yl) 2,5-diphenyltetrazolium bromide], resulting in a blue formazan salt, which is than extracted from the tissues and quantitated. […]
EpiDerm tissues are conditioned overnight at 37±2° C., 5% CO2, to relieve stress from the shipping process. […] After the three hour incubation in MTT, the formazan salt is extracted using 2.0 mL of isopropanol and the optical density (OD) of each sample is measured at 570 nm. Relative cell viability is calculated as a % of the mean of the negative control tissue. Dose-response curves are constructed for each sample and an ET50 value is calculated. […]

Molecule	ET50 (Irritancy Scale, example substances) [1]	Expected In vivo Irritancy Score ([2]; from ET50 by Irritancy Scale)	ET50 Value ([2]; neat material, exposure 1, 4 or 24 hrs, time to reduce cell viability to 50%)
O=[N+]([O-])O [Nitric Acid]	<0.5	–	–
Triton X-100 [1.0% Triton X-100]	4-12	very mild (12-24)	12.69 h
CCCCCCCCCCCCOS(=O)(=O)[O-].[Na+] [1% SDS, SDS]	0.5-4	–	–
